3 compounds from ChEMBL document CHEMBL3864142, “Allicin-inspired thiolated fluoroquinolones as antibacterials against ESKAPE pathogens” (2016) can be followed below.

≈ marks a conversion by molar mass, not a printed value. Calls of active or inactive are those of the source. No cut-off for these calls is given here.

Assay [1] relates to Staphylococcus aureus. As to the kind of experiment: Bactericidal activity against methicillin-susceptible Staphylococcus aureus ATCC 29213 by broth microdilution method. In kind it is functional. (In general: Broth dilution looks for growth in wells or tubes with falling amounts of substance.)
For assay [2], the system named is Acinetobacter baumannii. Kind of assay: Antibacterial activity against ciprofloxacin-resistant Acinetobacter baumannii BAA-1605 at 10 uM by disc diffusion method. The format is functional. The following applies: read-out: DIZ.
The subject of assay [3] is Klebsiella pneumoniae. As to the kind of experiment: Antibacterial activity against ESBL-producer Klebsiella pneumoniae K6 700603 at 10 uM by disc diffusion method. In kind it is functional. The following applies: read-out: DIZ.
Assay [4] has as its system Staphylococcus aureus. Kind of assay: Antibacterial activity against methicillin-susceptible Staphylococcus aureus ATCC 29213 by broth microdilution method. The format is functional.
For assay [5], the system named is Pseudomonas aeruginosa. Kind of assay: Antibacterial activity against Pseudomonas aeruginosa ATCC 15442 at 10 uM by disc diffusion method. The note with it: read-out: DIZ. The format is functional. Background: A growth-free zone around the sample is the usual read-out of agar diffusion tests.
Assay [6] relates to Staphylococcus aureus. Kind of assay: Bactericidal activity against methicillin-resistant Staphylococcus aureus BAA-1747 by broth microdilution method. The format is functional.
Assay [7] has as its system Staphylococcus aureus. As to the kind of experiment: Induction of reactive oxygen species formation in Staphylococcus aureus at 25 uM after 0.5 hrs by DCFH-DA probe-based fluorometric assay relative to control. In kind it is functional.
Assay [8] deals with Staphylococcus aureus. As to the kind of experiment: Antibacterial activity against Staphylococcus aureus after overnight incubation in presence of antioxidant vitamin E by double-diffusion assay. In kind it is functional.
In assay [9] the test system is Staphylococcus aureus. As to the kind of experiment: Antibacterial activity against Staphylococcus aureus after overnight incubation in presence of GSH by double-diffusion assay. In kind it is functional.
The nature of assay [10]: Antibacterial activity against vancomycin-intermediate resistant Staphylococcus aureus Mu50 ATCC 700699 at 10 uM by disc diffusion method. The note with it: read-out: DIZ. In kind it is functional, Staphylococcus aureus subsp. aureus Mu50.
Assay [11] has as its system Enterococcus faecium. As to the kind of experiment: Antibacterial activity against vancomycin-resistant Enterococcus faecium ATCC 700221 at 10 uM by disc diffusion method. The format is functional. The note with it: read-out: DIZ.
Assay [12] in a line: Antibacterial activity against vancomycin-intermediate resistant Staphylococcus aureus Mu50 ATCC 700699 by broth microdilution method. In kind it is functional, Staphylococcus aureus subsp. aureus Mu50.
The nature of assay [13]: Bactericidal activity against vancomycin-intermediate resistant Staphylococcus aureus Mu50 ATCC 700699 by broth microdilution method. The format is functional, Staphylococcus aureus subsp. aureus Mu50.
The next assay relates to Enterococcus faecalis. Kind of assay: Antibacterial activity against vancomycin-susceptible Enterococcus faecalis ATCC 29212 at 10 uM by disc diffusion method. The format is functional. The note with it: read-out: DIZ.
The nature of assay [14]: Antibacterial activity against Bacillus anthracis Sterne 34F2 at 10 uM by disc diffusion method. The format is functional, Bacillus anthracis str. Sterne. The following applies: read-out: DIZ.
Assay [15] concerns Staphylococcus aureus. Kind of assay: Antibacterial activity against methicillin-resistant Staphylococcus aureus BAA-1747 by broth microdilution method. The format is functional.
The subject of assay [16] is Staphylococcus aureus. Kind of assay: Antibacterial activity against methicillin-resistant Staphylococcus aureus BAA-1747 at 10 uM by disc diffusion method. In kind it is functional. The following applies: read-out: DIZ.
The test system of assay [17] is Acinetobacter baumannii. Kind of assay: Antibacterial activity against Acinetobacter baumannii ATCC 19606 at 10 uM by disc diffusion method. In kind it is functional. The following applies: read-out: DIZ.
Assay [18] relates to Staphylococcus aureus. Kind of assay: Antibacterial activity against methicillin-susceptible Staphylococcus aureus ATCC 29213 at 10 uM by disc diffusion method. The format is functional. The note with it: read-out: DIZ.
Assay [19] concerns Staphylococcus aureus. As to the kind of experiment: Antibacterial activity against methicillin-resistant Staphylococcus aureus BAA-1747 at 50 uM by disc diffusion method. The note with it: read-out: DIZ. In kind it is functional.
The subject of assay [20] is Klebsiella pneumoniae. Kind of assay: Antibacterial activity against ESBL-producer Klebsiella pneumoniae K6 700603 at 50 uM by disc diffusion method. The format is functional. The note with it: read-out: DIZ.
For assay [21], the system named is Pseudomonas aeruginosa. As to the kind of experiment: Antibacterial activity against Pseudomonas aeruginosa ATCC 15442 at 50 uM by disc diffusion method. The format is functional. The following applies: read-out: DIZ.
The subject of assay [22] is Acinetobacter baumannii. As to the kind of experiment: Antibacterial activity against ciprofloxacin-resistant Acinetobacter baumannii BAA-1605 at 50 uM in presence of 10 uM ciprofloxacin by disc diffusion method. The format is functional.
Assay [23] relates to Acinetobacter baumannii. Kind of assay: Antibacterial activity against ciprofloxacin-resistant Acinetobacter baumannii BAA-1605 at 50 uM by disc diffusion method. The format is functional. The following applies: read-out: DIZ.
For assay [24], the system named is Staphylococcus aureus. As to the kind of experiment: Antibacterial activity against methicillin-resistant Staphylococcus aureus BAA-1747 at 50 uM in presence of 10 uM ciprofloxacin by disc diffusion method. In kind it is functional.
The test system of assay [25] is Klebsiella pneumoniae. As to the kind of experiment: Antibacterial activity against ESBL-producer Klebsiella pneumoniae K6 700603 at 50 uM in presence of 10 uM ciprofloxacin by disc diffusion method. The format is functional.
The test system of assay [26] is Enterobacter cloacae. As to the kind of experiment: Antibacterial activity against Enterobacter cloacae ATCC 23355 at 50 uM by disc diffusion method. In kind it is functional. The following applies: read-out: DIZ.
For assay [27], the system named is Enterobacter cloacae. As to the kind of experiment: Antibacterial activity against Enterobacter cloacae ATCC 23355 at 25 uM in presence of 10 uM ciprofloxacin by disc diffusion method. The format is functional.
Assay [28] has as its system Pseudomonas aeruginosa. As to the kind of experiment: Antibacterial activity against Pseudomonas aeruginosa ATCC 15442 at 25 uM in presence of 10 uM ciprofloxacin by disc diffusion method. In kind it is functional.
The test system of assay [29] is Acinetobacter baumannii. As to the kind of experiment: Antibacterial activity against ciprofloxacin-resistant Acinetobacter baumannii BAA-1605 at 25 uM in presence of 10 uM ciprofloxacin by disc diffusion method. In kind it is functional.
Assay [30] relates to Enterobacter cloacae. As to the kind of experiment: Antibacterial activity against Enterobacter cloacae ATCC 23355 at 50 uM in presence of 10 uM ciprofloxacin by disc diffusion method. In kind it is functional.
Assay [31] relates to Enterococcus faecium. Kind of assay: Antibacterial activity against vancomycin-resistant Enterococcus faecium ATCC 700221 at 50 uM in presence of 10 uM ciprofloxacin by disc diffusion method. The format is functional.
For assay [32], the system named is Enterococcus faecium. Kind of assay: Antibacterial activity against vancomycin-resistant Enterococcus faecium ATCC 700221 at 50 uM by disc diffusion method. The format is functional. The following applies: read-out: DIZ.
Assay [33] concerns Staphylococcus aureus. Kind of assay: Antibacterial activity against methicillin-resistant Staphylococcus aureus BAA-1747 at 25 uM in presence of 10 uM ciprofloxacin by disc diffusion method. The format is functional.
Assay [34] relates to Klebsiella pneumoniae. Kind of assay: Antibacterial activity against ESBL-producer Klebsiella pneumoniae K6 700603 at 25 uM in presence of 10 uM ciprofloxacin by disc diffusion method. The format is functional.
Assay [35] has as its system Enterococcus faecium. Kind of assay: Antibacterial activity against vancomycin-resistant Enterococcus faecium ATCC 700221 at 25 uM in presence of 10 uM ciprofloxacin by disc diffusion method. In kind it is functional.
For assay [36], the system named is Pseudomonas aeruginosa. Kind of assay: Antibacterial activity against Pseudomonas aeruginosa ATCC 15442 at 50 uM in presence of 10 uM ciprofloxacin by disc diffusion method. The format is functional.
In assay [37] the test system is Staphylococcus aureus. As to the kind of experiment: Ratio of MBC to MIC for methicillin-susceptible Staphylococcus aureus ATCC 29213. In kind it is functional.
The test system of assay [38] is Staphylococcus aureus. As to the kind of experiment: Ratio of MBC to MIC for methicillin-resistant Staphylococcus aureus BAA-1747. The format is functional.
Assay [39] relates to Staphylococcus aureus. Kind of assay: Ratio of MBC to MIC for vancomycin-intermediate resistant Staphylococcus aureus Mu50 ATCC 700699. The format is functional.
A short description of assay [40]: Glutathione reactivity assessed as formation of S-(propylthio)glutathione and ciprofloxacin at 1 uM after 2 hrs by ESI-positive MS method.
For assay [41], the system named is Staphylococcus epidermidis. As to the kind of experiment: Antibacterial activity against Staphylococcus epidermidis ATCC 14990 at 10 uM by disc diffusion method. The format is functional. The note with it: read-out: DIZ.
For assay [42], the system named is Enterobacter cloacae. As to the kind of experiment: Antibacterial activity against Enterobacter cloacae ATCC 23355 at 10 uM by disc diffusion method. The format is functional. The following applies: read-out: DIZ.

For the compound `O=C(O)c1cn(C2CC2)c2cc(N3CCNCC3)c(F)cc2c1=O` [CIPROFLOXACIN], the MBC – broadly, the lowest tested concentration that kills the bacteria rather than only halting them – was 0.78 µM (≈ 0.258 µg/mL) with Staphylococcus aureus [1], 3.13 µM (≈ 1.04 µg/mL) in the assay on Staphylococcus aureus [6] and 50 µM (≈ 16.6 µg/mL) in assay [13]. Also, the zone of inhibition at 10 µM is 0 mm in the assay on Acinetobacter baumannii [2]; 22 mm in the assay with Klebsiella pneumoniae [3]; 29 mm with Pseudomonas aeruginosa [5]; 9 mm in assay [10]; 0 mm in the assay with Enterococcus faecium [11]; 22 mm in the assay with Enterococcus faecalis. In addition, the zone of inhibition at 10 µM was 34 mm in [14], 20 mm in the assay with Staphylococcus aureus [16], 23 mm in the assay with Acinetobacter baumannii [17] and 23 mm with Staphylococcus aureus [18]. Besides, the results for the MIC (against Staphylococcus aureus [4]; in assay [12]; in the assay with Staphylococcus aureus [15]) were 0.1 µM (≈ 0.0331 µg/mL), 50 µM (≈ 16.6 µg/mL) and 1.56 µM (≈ 0.517 µg/mL), respectively. For the same compound, the “fold change (FC)” value in the assay with Staphylococcus aureus [7] is 2 - 3. Also, the result with Staphylococcus aureus [8] and in the assay with Staphylococcus aureus [9] was Active.
With `C=CCS[S+]([O-])CC=C` (configuration not stated) [ALLICIN], the zone of inhibition at 50 µM in the assay with Staphylococcus aureus [19] came out at 28 mm; with Klebsiella pneumoniae [20], 13 mm; with Pseudomonas aeruginosa [21], 0 mm; in the assay on Acinetobacter baumannii [23], 24 mm; in the assay on Enterobacter cloacae [26] it was 15 mm; with Enterococcus faecium [32], 18 mm. Further, the “diameter of the inhibition zone (DIZ)” value in the assay on Acinetobacter baumannii [22] worked out at 25 mm; in the assay with Staphylococcus aureus [24], 29 mm; in the assay on Klebsiella pneumoniae [25], 24 mm; in the assay with Enterobacter cloacae [27] it was 31 mm; in the assay on Pseudomonas aeruginosa [28], 28 mm; in the assay on Acinetobacter baumannii [29], 20 mm. The “diameter of the inhibition zone (DIZ)” value with Enterobacter cloacae [30] was determined as 31 mm; in the assay with Enterococcus faecium [31], 17 mm; in the assay with Staphylococcus aureus [33], 25 mm; in the assay with Klebsiella pneumoniae [34], 22 mm; in the assay with Enterococcus faecium [35], 10 mm; in the assay on Pseudomonas aeruginosa [36], 27 mm.
For the compound `CCCSN1CCN(c2cc3c(cc2F)c(=O)c(C(=O)O)cn3C2CC2)CC1`, the MBC worked out at 0.2 µM (≈ 0.0811 µg/mL) against Staphylococcus aureus [1], 1.56 µM (≈ 0.633 µg/mL) in the assay on Staphylococcus aureus [6] and 50 µM (≈ 20.3 µg/mL) in [13]. Moreover, the zone of inhibition at 10 µM stood at 0 mm in the assay on Acinetobacter baumannii [2]; 25 mm in the assay with Klebsiella pneumoniae [3]; 32 mm in the assay with Pseudomonas aeruginosa [5]; 11 mm in [10]; 0 mm with Enterococcus faecium [11]; 28 mm with Enterococcus faecalis. Further, the zone of inhibition at 10 µM in [14] was determined as 38 mm; in [41], 37 mm; in the assay on Staphylococcus aureus [16] it was 24 mm; with Acinetobacter baumannii [17], 27 mm; in the assay with Enterobacter cloacae [42], 29 mm; in the assay with Staphylococcus aureus [18], 29 mm. For the same compound, the Ratio with Staphylococcus aureus [37] came out at 2; in the assay on Staphylococcus aureus [38] it was 1; in the assay with Staphylococcus aureus [39], 1. For the same compound, the MIC (as a rule, the lowest concentration found to suppress growth) in the assay with Staphylococcus aureus [4] was 0.1 µM (≈ 0.0405 µg/mL); in assay [12], 50 µM (≈ 20.3 µg/mL); with Staphylococcus aureus [15] it was 1.56 µM (≈ 0.633 µg/mL). In addition, in the assay on Staphylococcus aureus [7], the “fold change (FC)” value is 2 - 3. Besides, the result in the assay with Staphylococcus aureus [8] and with Staphylococcus aureus [9] was Active. Further, in assay [40], the Drug metabolism result was “Metabolite detected”.
